Laboratory results published in ChEMBL document CHEMBL1154513, “Design and synthesis of 4-aryl-4-oxobutanoic acid amides as calpain inhibitors” (Bioorg Med Chem Lett, 2009).

Biological target: T1, Calpain-1 catalytic subunit (Homo sapiens, UniProt P07384)
T1 sequence (P07384 whole entry): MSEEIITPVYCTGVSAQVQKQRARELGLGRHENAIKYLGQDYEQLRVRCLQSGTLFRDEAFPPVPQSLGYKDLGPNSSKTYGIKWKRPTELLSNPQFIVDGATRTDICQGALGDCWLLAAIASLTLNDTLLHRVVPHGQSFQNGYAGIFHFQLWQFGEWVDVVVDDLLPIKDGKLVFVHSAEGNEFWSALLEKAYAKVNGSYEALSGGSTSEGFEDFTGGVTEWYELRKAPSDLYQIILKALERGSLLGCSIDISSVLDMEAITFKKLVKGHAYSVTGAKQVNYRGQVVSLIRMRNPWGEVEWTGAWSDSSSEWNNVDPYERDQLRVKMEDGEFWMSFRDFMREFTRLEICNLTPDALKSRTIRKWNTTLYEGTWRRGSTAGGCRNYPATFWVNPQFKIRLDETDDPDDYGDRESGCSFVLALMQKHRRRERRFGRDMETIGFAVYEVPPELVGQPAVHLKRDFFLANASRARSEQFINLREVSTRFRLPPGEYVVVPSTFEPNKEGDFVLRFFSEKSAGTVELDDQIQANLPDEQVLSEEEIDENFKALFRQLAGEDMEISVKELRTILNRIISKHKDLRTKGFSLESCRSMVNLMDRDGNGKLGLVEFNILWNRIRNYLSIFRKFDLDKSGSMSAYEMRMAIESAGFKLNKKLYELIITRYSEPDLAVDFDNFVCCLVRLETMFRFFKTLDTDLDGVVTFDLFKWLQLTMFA
Test: Inhibition of human erythrocytes mu-calpain

Row | SMILES | IC50
1 | O=C(CCC(=O)c1ccccc1O)N[C@@H](Cc1ccccc1)C(=O)C(=O)NCc1ccccc1 | 13800 nM
2 | COc1ccc(C(=O)CCC(=O)N[C@@H](Cc2ccccc2)C(=O)C(N)=O)c(OC)c1 | 1180 nM
3 | O=C(CCC(=O)c1ccc(O)cc1O)N[C@@H](Cc1ccccc1)C(=O)C(=O)NCc1ccccc1 | 5730 nM
4 | COc1ccc(OC)c(C(=O)CCC(=O)N[C@@H](Cc2ccccc2)C(=O)C(=O)NCc2ccccc2)c1 | 3770 nM
5 | COCOc1ccccc1C(=O)CCC(=O)N[C@@H](Cc1ccccc1)C(=O)C(N)=O | 340 nM
6 | COCOc1cc(OC)ccc1C(=O)CCC(=O)N[C@@H](Cc1ccccc1)C(=O)C(N)=O | 700 nM
7 | COc1ccccc1C(=O)CCC(=O)N[C@@H](Cc1ccccc1)C(=O)C(N)=O | 540 nM
8 | COc1ccc(OC)c(C(=O)CCC(=O)N[C@@H](Cc2ccccc2)C(=O)C(=O)NCCc2ccccc2)c1 | 2090 nM
9 | COCOc1ccccc1C(=O)CCC(=O)N[C@@H](Cc1ccccc1)C(=O)C(=O)NCc1ccccc1 | 4290 nM
10 | COc1ccc(CCNC(=O)C(=O)[C@H](Cc2ccccc2)NC(=O)CCC(=O)c2cc(OC)ccc2OC)cc1 | 950 nM
11 | COCOc1cc(OC)ccc1C(=O)CCC(=O)N[C@@H](Cc1ccccc1)C(=O)C(=O)NCc1ccccc1 | 4250 nM
12 | COc1ccc(CNC(=O)C(=O)[C@H](Cc2ccccc2)NC(=O)CCC(=O)c2cc(OC)ccc2OC)cc1 | 2350 nM
13 | COc1ccc(OC)c(C(=O)CCC(=O)N[C@@H](Cc2ccccc2)C(=O)C(=O)NCc2ccc(OC)c(OC)c2)c1 | 1640 nM
14 | COc1ccc(OC)c(CCCC(=O)N[C@@H](Cc2ccccc2)C(=O)C(=O)NCc2ccccc2)c1 | 8000 nM
15 | COc1ccc(OC)c(CCCC(=O)N[C@@H](Cc2ccccc2)C(=O)C(N)=O)c1 | 1860 nM
16 | O=C(CCC(=O)c1ccccc1)N[C@@H](Cc1ccccc1)C(=O)C(=O)NCc1ccccc1 | 6250 nM
17 | NC(=O)C(=O)[C@H](Cc1ccccc1)NC(=O)CCC(=O)c1ccccc1 | 3200 nM
18 | COc1ccc(OC)c(C(=O)CCC(=O)N[C@@H](Cc2ccccc2)C(=O)C(N)=O)c1 | 520 nM
19 | COc1ccc(OC)c(C(=O)CCC(=O)N[C@@H](Cc2ccccc2)C(=O)C(=O)NCCc2ccc(OC)c(OC)c2)c1 | 2130 nM
20 | COc1ccc(C(=O)CCC(=O)N[C@@H](Cc2ccccc2)C(=O)C(=O)NCc2ccccc2)c(O)c1 | 13000 nM
21 | COc1ccc(C(=O)CCC(=O)N[C@@H](Cc2ccccc2)C(=O)C(=O)NCc2ccccc2)c(OC)c1 | 6160 nM
22 | COc1ccccc1C(=O)CCC(=O)N[C@@H](Cc1ccccc1)C(=O)C(=O)NCc1ccccc1 | 3330 nM
